# Measured values taken from paper PMC8480901 (PLoS ONE, 2021).
# “And” between values parts separate entries of the source, which are not always exact repeats. Equal entries are not always repeated.
# Test system: TNF-α, IL-6, IL-1β, GM-CSF, CXCL-1, CXCL-2, CCL-2 and MMP-9 in lung tissue
# Test: LPS-induced cytokines, chemokines and MMP-9 in mouse lung homogenates (Luminex, ELISA)
# Details: lung homogenate, LPS; for CCL2 / CXCL1 / CXCL2 / GM-CSF / IL-1β / IL-6 / MMP9 / TNFα: individual animal, listed as Azi; for CCL2 Mean / CXCL1, Mean / CXCL2, Mean / GM-CSF Mean / IL-1β Mean / IL-6 Mean / MMP9, Mean / TNFα Mean: mean of 8
# Experimental: To induce pulmonary neutrophilia, mice in the control group received intranasal (IN) 50 μL saline, and all other animals received 5 μg LPS/50 μL saline IN per mouse.
# After bronchoalveolar lavage, lungs were removed, weighed, snap frozen, and stored at −80°C until analysis. To homogenize the tissue, the frozen lungs were thawed and placed in Precellys CK28 Hard Tissue tubes (BERTIN Instruments, Montigny-le-Bretonneux, France) in 1 mL PBS (Gibco, Life Technologies, Paisley, UK) supplemented with protease inhibitors (Halt™ Protease Inhibitor Cocktail [100×]; Thermo Fisher Scientific, Rockford, IL, USA). A Precellys homogenizer (BERTIN Instruments) was used, shaking at 6800 rpm for three 30-second pulses separated by 15-second pauses. After homogenization, samples were centrifuged at 18,000×g for 10 minutes at 4°C, and the supernatants were collected for analysis.
# Concentrations of tumor necrosis factor (TNF)-α, IL-6, granulocyte-macrophage colony-stimulating factor (GM-CSF), chemokine (C-X-C motif) ligand (CXCL)-1, CXCL-2, and chemokine (C-C motif) ligand (CCL)-2 in mouse lung homogenates were analyzed with the Mouse Premixed Multi-Analyte Kit (R&D Systems, Minneapolis, MN, USA) per the manufacturer’s protocol and using a Luminex 200 System (Luminex Corporation, Austin, TX, USA). Cytokine and chemokine concentrations were determined from blank-corrected median fluorescence intensity of each sample via xPONENT® software (Luminex Corporation), interpolating from standard curves generated with a 5-parameter logistic curve-fit.
# Mouse Total MMP (matrix metalloprotease)-9 and IL-1β/IL-1F2 DuoSet ELISA (enzyme-linked immunosorbent assay) kits (R&D Systems) were used to measure concentrations of MMP-9 and IL-1β, respectively, in lung homogenates per the manufacturer’s protocols. Absorbance at 450 nm was measured using the SpectraMax i3 (Molecular Devices, San Jose, CA, USA). Concentrations of MMP-9 and IL-1β in samples were determined by interpolation from standard curves.
# Differences between treated versus vehicle groups were determined using the Mann-Whitney test and were considered statistically significant when P<0.05. Outliers in the analysis of cytokine and chemokine concentrations were identified using the Grubbs test. No criteria were set for inclusion/exclusion of animals during the experiment or data points during the analysis.
smiles,measurement,setting,value
CC[C@H]1OC(=O)[C@H](C)[C@@H](O[C@H]2C[C@@](C)(OC)[C@@H](O)[C@H](C)O2)[C@H](C)[C@@H](O[C@@H]2O[C@H](C)C[C@H](N(C)C)[C@H]2O)[C@](C)(O)C[C@@H](C)CN(C)[C@H](C)[C@@H](O)[C@]1(C)O [Azithromycin],CCL2 % reduction,30 mg/kg,89%
same,CXCL1 % reduction,30 mg/kg,62%
same,CXCL2 % reduction,30 mg/kg,66%
same,GM-CSF % reduction,30 mg/kg,77%
same,IL-1β % reduction,30 mg/kg,12%
same,IL-6 % reduction,30 mg/kg,89%
same,MMP9 % reduction,30 mg/kg,27%
same,TNFα % reduction,30 mg/kg,77%
same,CCL2,30 mg/kg,1476.16 pg/mL and 999.58 pg/mL and 556.20 pg/mL and 527.89 pg/mL and 1875.36 pg/mL and 690.08 pg/mL and 698.62 pg/mL and 781.98 pg/mL
same,CXCL1,30 mg/kg,6439.29 pg/mL and 6623.20 pg/mL and 4431.51 pg/mL and 4192.30 pg/mL and 6910.31 pg/mL and 3755.15 pg/mL and 2835.10 pg/mL and 5401.78 pg/mL
same,CXCL2,30 mg/kg,7207.48 pg/mL and 4769.86 pg/mL and 3209.88 pg/mL and 2485.22 pg/mL and 5075.82 pg/mL and 2214.38 pg/mL and 1941.44 pg/mL and 6143.97 pg/mL
same,GM-CSF,30 mg/kg,74.67 pg/mL and 53.86 pg/mL and 46.96 pg/mL and 43.52 pg/mL and 113.19 pg/mL and 45.24 pg/mL and 48.68 pg/mL and 57.31 pg/mL
same,IL-1β,30 mg/kg,7544 pg/mL and 10213 pg/mL and 8353 pg/mL and 7459 pg/mL and 10985 pg/mL and 8847 pg/mL and 13576 pg/mL and 10376 pg/mL
same,IL-6,30 mg/kg,510.25 pg/mL and 452.87 pg/mL and 220.67 pg/mL and 149.74 pg/mL and 314.17 pg/mL and 173.48 pg/mL and 475.85 pg/mL
same,MMP9,30 mg/kg,1204 pg/mL and 2421 pg/mL and 1943 pg/mL and 1913 pg/mL and 2288 pg/mL and 1939 pg/mL and 1874 pg/mL and 1816 pg/mL
same,TNFα,30 mg/kg,463.76 pg/mL and 597.19 pg/mL and 177.73 pg/mL and 146.70 pg/mL and 109.09 pg/mL and 202.71 pg/mL and 129.48 pg/mL
same,CCL2 Mean,30 mg/kg,951 pg/mL
same,"CXCL1, Mean",30 mg/kg,5074 pg/mL
same,"CXCL2, Mean",30 mg/kg,4131 pg/mL
same,GM-CSF Mean,30 mg/kg,60 pg/mL
same,IL-1β Mean,30 mg/kg,9669 pg/mL
same,IL-6 Mean,30 mg/kg,306 pg/mL
same,"MMP9, Mean",30 mg/kg,1925 pg/mL
same,TNFα Mean,30 mg/kg,245 pg/mL
same,CCL2 % reduction,100 mg/kg,80%
same,CXCL1 % reduction,100 mg/kg,24%
same,CXCL2 % reduction,100 mg/kg,11%
same,GM-CSF % reduction,100 mg/kg,67%
same,IL-1β % reduction,100 mg/kg,12%
same,IL-6 % reduction,100 mg/kg,8%
same,MMP9 % reduction,100 mg/kg,24%
same,TNFα % reduction,100 mg/kg,36%
same,CCL2,100 mg/kg,3799.67 pg/mL and 664.18 pg/mL and 1172.90 pg/mL and 962.12 pg/mL and 765.59 pg/mL and 1437.03 pg/mL and 877.71 pg/mL and 698.62 pg/mL
same,CXCL1,100 mg/kg,20237.00 pg/mL and 6969.24 pg/mL and 8733.13 pg/mL and 8755.54 pg/mL and 6380.45 pg/mL and 8935.00 pg/mL and 8591.33 pg/mL and 8085.43 pg/mL
same,CXCL2,100 mg/kg,18077.64 pg/mL and 6817.72 pg/mL and 11394.66 pg/mL and 9108.54 pg/mL and 6682.24 pg/mL and 11221.65 pg/mL and 9678.57 pg/mL and 10364.59 pg/mL
same,GM-CSF,100 mg/kg,162.70 pg/mL and 67.71 pg/mL and 85.13 pg/mL and 72.93 pg/mL and 64.24 pg/mL and 90.38 pg/mL and 45.24 pg/mL
same,IL-1β,100 mg/kg,6686 pg/mL and 8985 pg/mL and 9690 pg/mL and 9020 pg/mL and 8022 pg/mL and 10797 pg/mL and 10826 pg/mL and 12960 pg/mL
same,IL-6,100 mg/kg,2378.14 pg/mL and 464.36 pg/mL and 635.80 pg/mL and 669.91 pg/mL and 567.42 pg/mL and 703.95 pg/mL and 884.75 pg/mL and 1176.18 pg/mL
same,MMP9,100 mg/kg,1836 pg/mL and 1554 pg/mL and 2200 pg/mL and 2220 pg/mL and 2073 pg/mL and 2366 pg/mL and 1528 pg/mL and 2063 pg/mL
same,TNFα,100 mg/kg,660.88 pg/mL and 1126.83 pg/mL and 249.05 pg/mL and 935.87 pg/mL and 855.56 pg/mL and 270.54 pg/mL and 656.01 pg/mL and 675.49 pg/mL
same,CCL2 Mean,100 mg/kg,1297 pg/mL
same,"CXCL1, Mean",100 mg/kg,9586 pg/mL
same,"CXCL2, Mean",100 mg/kg,10418 pg/mL
same,GM-CSF Mean,100 mg/kg,83 pg/mL
same,IL-1β Mean,100 mg/kg,9623 pg/mL
same,IL-6 Mean,100 mg/kg,935 pg/mL
same,"MMP9, Mean",100 mg/kg,1980 pg/mL
same,TNFα Mean,100 mg/kg,679 pg/mL
